Laboratory results reported in ChEMBL document CHEMBL1136781, “Comparison of in vitro P-glycoprotein screening assays: recommendations for their use in drug discovery” (J Med Chem, 2003).

Assays:
[1] = Partition coefficient (logP); type: physicochemical; settings: octanol/water
[2] = target: T1, ATP-dependent translocase ABCB1 (Mus musculus, UniProt P06795); assay: Inhibition of P-glycoprotein, mouse L-mdr1b expressed in LLC-PK1 epithelial cells using calcein-AM polarisation assay; type: functional, cell-based
[3] = target: T2, ATP-dependent translocase ABCB1 (Homo sapiens, UniProt P08183); assay: Inhibition of P-gp was determined using rhodamine-assay in human CaCo-2 cells; type: functional, cell-based; parameters: concentration or dose not given beside the values
Target sequence in this assay (P08183 whole entry): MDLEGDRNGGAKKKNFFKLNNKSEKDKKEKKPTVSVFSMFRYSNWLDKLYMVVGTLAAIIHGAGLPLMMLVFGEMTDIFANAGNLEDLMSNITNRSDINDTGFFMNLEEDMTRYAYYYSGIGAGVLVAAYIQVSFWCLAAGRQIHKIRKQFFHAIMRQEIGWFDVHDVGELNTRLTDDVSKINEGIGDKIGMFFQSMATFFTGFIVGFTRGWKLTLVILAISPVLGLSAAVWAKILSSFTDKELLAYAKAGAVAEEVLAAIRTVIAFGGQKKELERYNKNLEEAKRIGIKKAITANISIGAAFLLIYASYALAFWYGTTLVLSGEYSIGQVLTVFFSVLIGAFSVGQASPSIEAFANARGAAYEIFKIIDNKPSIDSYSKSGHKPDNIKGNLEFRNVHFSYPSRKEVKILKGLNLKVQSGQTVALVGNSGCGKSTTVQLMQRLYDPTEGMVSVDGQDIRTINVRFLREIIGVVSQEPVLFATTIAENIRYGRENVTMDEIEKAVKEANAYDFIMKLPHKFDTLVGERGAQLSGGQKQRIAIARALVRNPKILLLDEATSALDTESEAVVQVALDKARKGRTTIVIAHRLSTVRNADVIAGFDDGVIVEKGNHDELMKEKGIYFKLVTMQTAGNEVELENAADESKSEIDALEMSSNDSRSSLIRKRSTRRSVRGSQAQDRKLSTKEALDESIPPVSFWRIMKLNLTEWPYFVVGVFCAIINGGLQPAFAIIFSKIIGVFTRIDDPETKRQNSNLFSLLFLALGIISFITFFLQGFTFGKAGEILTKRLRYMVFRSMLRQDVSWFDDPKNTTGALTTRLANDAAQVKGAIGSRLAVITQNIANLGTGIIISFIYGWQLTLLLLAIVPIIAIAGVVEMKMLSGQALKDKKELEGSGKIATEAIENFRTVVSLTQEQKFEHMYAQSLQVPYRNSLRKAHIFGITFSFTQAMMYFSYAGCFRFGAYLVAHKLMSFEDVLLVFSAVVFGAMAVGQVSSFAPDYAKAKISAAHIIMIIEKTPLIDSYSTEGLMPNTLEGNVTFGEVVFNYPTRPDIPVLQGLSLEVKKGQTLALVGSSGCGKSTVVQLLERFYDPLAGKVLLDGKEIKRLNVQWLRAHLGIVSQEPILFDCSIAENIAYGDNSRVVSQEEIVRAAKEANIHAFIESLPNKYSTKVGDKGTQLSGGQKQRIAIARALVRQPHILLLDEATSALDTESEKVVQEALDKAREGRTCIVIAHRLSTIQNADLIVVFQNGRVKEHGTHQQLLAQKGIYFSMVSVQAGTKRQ

[4] = target: T2, ATP-dependent translocase ABCB1; assay: Inhibition of P-glycoprotein using ATPase in MDR1 membranes; type: functional, cell membranes
Target sequence in this assay (P08183 whole entry): as above

[5] = target: T2, ATP-dependent translocase ABCB1; assay: TP_TRANSPORTER: inhibition of Rhodamine 123 efflux in Caco-2 cells; type: functional, cell-based; parameters: concentration or dose not given beside the values; scale not given: the % may be the effect or the level left
Target sequence in this assay (P08183 whole entry): as above

[6] = target: T1, ATP-dependent translocase ABCB1; assay: TP_TRANSPORTER: inhibition of Calcein-AM efflux in Mdr1b-expressing LLC-PK1 cells; type: functional, cell-based
[7] = target: T3, ATP-dependent translocase ABCB1 (Mus musculus, UniProt P21447); assay: P-gp activity was measured by a direct transport assay, using polarized LLC-PK1 epithelial cells; type: functional, cell-based; settings: human
[8] = target: T3, ATP-dependent translocase ABCB1; assay: P-gp activity was measured by a direct transport assay, using polarized LLC-mdr1a epithelial cells; type: functional, cell-based; settings: human, epithelial cell
[9] = target: T3, ATP-dependent translocase ABCB1; assay: Inhibition of P-glycoprotein, mouse L-mdr1a expressed in LLC-PK1 epithelial cells using calcein-AM polarisation assay; type: functional, cell-based
[10] = target: T3, ATP-dependent translocase ABCB1; assay: TP_TRANSPORTER: inhibition of Calcein-AM efflux in Mdr1a-expressing LLC-PK1 cells; type: functional, cell-based
[11] = target: T4, Cytochrome P450 3A4 (Homo sapiens, UniProt P08684)
Description: Inhibition of human cytochrome P450 3A4

[12] = target: T2, ATP-dependent translocase ABCB1; assay: P-gp activity was measured by a direct transport assay, using polarized LLC-MDR1 epithelial cells; settings: epithelial cell
[13] = target: T2, ATP-dependent translocase ABCB1; assay: Inhibition of P-glycoprotein, human L-MDR1 expressed in LLC-PK1 epithelial cells using calcein-AM polarisation assay; type: functional, cell-based
Target sequence in this assay (P08183 whole entry): as above

[14] = target: T2, ATP-dependent translocase ABCB1; assay: TP_TRANSPORTER: inhibition of Calcein-AM efflux in MDR1-expressing LLC-PK1 cells; type: functional, cell-based
Target sequence in this assay (P08183 whole entry): as above

[15] = target: T4, Cytochrome P450 3A4; remark: listed apart in the source
Description: Inhibition of human cytochrome P450 3A4

T4 sequence (P08684 whole entry): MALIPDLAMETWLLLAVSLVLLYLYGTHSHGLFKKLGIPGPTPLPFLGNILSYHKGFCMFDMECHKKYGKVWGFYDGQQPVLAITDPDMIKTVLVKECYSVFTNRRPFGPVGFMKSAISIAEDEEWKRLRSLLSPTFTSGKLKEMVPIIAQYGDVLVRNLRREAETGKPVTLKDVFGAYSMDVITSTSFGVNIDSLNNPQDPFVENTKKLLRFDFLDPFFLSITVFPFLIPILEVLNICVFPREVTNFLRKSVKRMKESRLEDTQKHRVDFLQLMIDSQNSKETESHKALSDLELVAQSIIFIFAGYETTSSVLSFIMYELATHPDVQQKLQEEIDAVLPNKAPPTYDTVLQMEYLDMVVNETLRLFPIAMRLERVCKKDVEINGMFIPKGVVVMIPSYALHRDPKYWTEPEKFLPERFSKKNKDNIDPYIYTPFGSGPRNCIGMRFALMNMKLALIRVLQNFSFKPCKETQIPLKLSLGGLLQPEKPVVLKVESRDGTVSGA
T3 sequence (P21447 whole entry): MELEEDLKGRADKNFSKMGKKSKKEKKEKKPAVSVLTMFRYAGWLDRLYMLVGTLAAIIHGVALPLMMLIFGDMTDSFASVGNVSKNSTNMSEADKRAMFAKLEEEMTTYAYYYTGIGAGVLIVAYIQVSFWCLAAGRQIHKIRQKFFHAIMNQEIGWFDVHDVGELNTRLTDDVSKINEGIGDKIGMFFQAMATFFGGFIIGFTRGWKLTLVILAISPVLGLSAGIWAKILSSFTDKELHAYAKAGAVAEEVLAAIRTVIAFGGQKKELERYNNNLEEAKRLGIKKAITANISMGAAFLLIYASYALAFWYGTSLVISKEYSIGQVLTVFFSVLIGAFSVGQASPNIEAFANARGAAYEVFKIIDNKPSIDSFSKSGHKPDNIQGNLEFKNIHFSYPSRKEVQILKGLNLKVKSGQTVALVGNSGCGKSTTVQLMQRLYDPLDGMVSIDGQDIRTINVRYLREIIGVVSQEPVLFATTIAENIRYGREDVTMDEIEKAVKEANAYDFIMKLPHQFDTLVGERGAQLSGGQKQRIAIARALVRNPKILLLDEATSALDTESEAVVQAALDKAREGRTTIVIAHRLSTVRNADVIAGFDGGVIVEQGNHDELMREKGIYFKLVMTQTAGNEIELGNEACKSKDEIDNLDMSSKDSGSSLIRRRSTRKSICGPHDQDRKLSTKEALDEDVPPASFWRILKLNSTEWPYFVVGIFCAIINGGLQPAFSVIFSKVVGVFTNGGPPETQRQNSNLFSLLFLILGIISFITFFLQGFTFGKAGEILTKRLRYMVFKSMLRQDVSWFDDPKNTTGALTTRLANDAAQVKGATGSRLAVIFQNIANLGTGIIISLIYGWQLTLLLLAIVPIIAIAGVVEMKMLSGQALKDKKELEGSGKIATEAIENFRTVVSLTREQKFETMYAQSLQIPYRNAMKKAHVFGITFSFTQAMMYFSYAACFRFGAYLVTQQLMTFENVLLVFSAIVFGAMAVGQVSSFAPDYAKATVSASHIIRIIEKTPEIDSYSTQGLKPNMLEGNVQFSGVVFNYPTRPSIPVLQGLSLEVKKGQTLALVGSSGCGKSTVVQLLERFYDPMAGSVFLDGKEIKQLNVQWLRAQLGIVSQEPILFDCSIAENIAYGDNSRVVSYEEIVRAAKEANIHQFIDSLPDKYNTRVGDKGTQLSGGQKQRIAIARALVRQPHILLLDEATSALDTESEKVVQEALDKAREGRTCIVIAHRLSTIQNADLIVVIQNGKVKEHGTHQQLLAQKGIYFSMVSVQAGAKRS
T1 sequence (P06795 whole entry): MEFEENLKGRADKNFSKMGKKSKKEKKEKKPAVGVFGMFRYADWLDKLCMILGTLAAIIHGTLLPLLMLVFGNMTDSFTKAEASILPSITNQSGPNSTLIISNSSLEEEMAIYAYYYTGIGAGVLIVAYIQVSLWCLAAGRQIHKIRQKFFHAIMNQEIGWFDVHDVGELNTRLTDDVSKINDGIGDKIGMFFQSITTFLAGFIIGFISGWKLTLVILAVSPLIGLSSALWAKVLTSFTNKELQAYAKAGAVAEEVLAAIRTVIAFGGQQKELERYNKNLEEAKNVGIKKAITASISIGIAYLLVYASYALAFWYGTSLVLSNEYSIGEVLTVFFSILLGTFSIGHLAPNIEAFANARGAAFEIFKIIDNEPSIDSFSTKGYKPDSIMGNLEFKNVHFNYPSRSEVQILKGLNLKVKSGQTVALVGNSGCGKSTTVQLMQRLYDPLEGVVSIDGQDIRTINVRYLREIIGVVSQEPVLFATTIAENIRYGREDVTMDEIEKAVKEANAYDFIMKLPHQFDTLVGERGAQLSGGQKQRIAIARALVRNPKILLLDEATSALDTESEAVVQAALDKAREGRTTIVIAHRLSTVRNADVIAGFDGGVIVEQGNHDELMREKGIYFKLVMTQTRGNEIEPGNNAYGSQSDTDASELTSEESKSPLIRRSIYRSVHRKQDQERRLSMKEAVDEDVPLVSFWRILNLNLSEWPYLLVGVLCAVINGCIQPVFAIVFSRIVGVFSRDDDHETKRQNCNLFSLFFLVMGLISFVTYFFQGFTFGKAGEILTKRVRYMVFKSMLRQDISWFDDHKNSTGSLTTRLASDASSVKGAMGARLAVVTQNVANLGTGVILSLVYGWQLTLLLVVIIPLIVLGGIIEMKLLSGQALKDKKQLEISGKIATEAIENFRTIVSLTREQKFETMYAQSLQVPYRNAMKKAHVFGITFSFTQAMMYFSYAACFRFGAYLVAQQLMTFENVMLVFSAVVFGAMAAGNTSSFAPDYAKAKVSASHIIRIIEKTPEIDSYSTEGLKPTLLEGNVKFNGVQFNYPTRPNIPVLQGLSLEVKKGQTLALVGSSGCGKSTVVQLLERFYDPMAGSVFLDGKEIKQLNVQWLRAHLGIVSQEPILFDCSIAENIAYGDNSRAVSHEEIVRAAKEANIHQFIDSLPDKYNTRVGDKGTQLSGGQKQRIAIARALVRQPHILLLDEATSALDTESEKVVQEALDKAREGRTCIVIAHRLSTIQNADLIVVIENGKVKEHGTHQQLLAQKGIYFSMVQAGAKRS

Molecule	logP ([1]; read-out: logP)	IC50 [2] [µM]	Inhibition [3] [%]	Activity [4] [nmol/min/mg]	Activity [5] [%]	IC50 [6] [µM]	IC50 [9] [µM]	IC50 [10] [µM]	other results
CC(C)(C)NC(=O)[C@@H]1C[C@@H]2CCCC[C@@H]2CN1C[C@@H](O)[C@H](Cc1ccccc1)NC(=O)[C@H](CC(N)=O)NC(=O)c1ccc2ccccc2n1	4.7	> 50	43	30	43	> 50			
CC1(C)SSC(C)(C)[C@@H](NC(=O)[C@@H](N)Cc2ccc(O)cc2)C(=O)NCC(=O)N[C@@H](Cc2ccccc2)C(=O)N[C@H]1C(=O)O	1	> 50	0	4	0	> 50	> 50	> 50	Ratio [7]: 0.8; Ratio [8]: 0.9; IC50 [11]: > 50 µM; Ratio [12]: 0.6
Cc1c(O)cccc1C(=O)N[C@@H](CSc1ccccc1)[C@H](O)CN1C[C@H]2CCCC[C@H]2C[C@H]1C(=O)NC(C)(C)C			30	6.2	30		2.3	2.3	logP [1]: 5.8
COc1ccc(CCN2CCC(Nc3nc4ccccc4n3Cc3ccc(F)cc3)CC2)cc1 [ASTEMIZOLE]	5.7	1.7	39	18	39	1.7	1.3	1.3	
CN/C(=N/CCSCc1nc[nH]c1C)NC#N [CIMETIDINE]		> 50	4	2.8	4	> 50			
Clc1ccccc1C(c1ccccc1)(c1ccccc1)n1ccnc1 [CLOTRIMAZOLE]	5.3	3.5	29	7.5	29	3.5	4.8	4.8	
COc1cc2c(c(OC)c1OC)-c1ccc(OC)c(=O)cc1[C@@H](NC(C)=O)CC2 [COLCHICINE]		> 50	8	0.1	8	> 50	> 50	> 50	IC50 [13]: > 50 µM; IC50 [14]: > 50 µM
C[C@@H]1C[C@H]2[C@@H]3CCC4=CC(=O)C=C[C@]4(C)[C@@]3(F)[C@@H](O)C[C@]2(C)[C@@]1(O)C(=O)CO [DEXAMETHASONE]	1.7	> 50	0	4	0	> 50	> 50	> 50	IC50 [13]: > 50 µM; IC50 [14]: > 50 µM
C[C@H]1O[C@@H](O[C@H]2[C@@H](O)C[C@H](O[C@H]3[C@@H](O)C[C@H](O[C@H]4CC[C@@]5(C)[C@H](CC[C@@H]6[C@@H]5C[C@@H](O)[C@]5(C)[C@@H](C7=CC(=O)OC7)CC[C@]65O)C4)O[C@@H]3C)O[C@@H]2C)C[C@H](O)[C@@H]1O [DIGOXIN]		> 50				> 50	> 50	> 50	
CC[C@H]1OC(=O)[C@H](C)[C@@H](O[C@H]2C[C@@](C)(OC)[C@@H](O)[C@H](C)O2)[C@H](C)[C@@H](O[C@@H]2O[C@H](C)C[C@H](N(C)C)[C@H]2O)[C@](C)(O)C[C@@H](C)C(=O)[C@H](C)[C@@H](O)[C@]1(C)O [ERYTHROMYCIN]	2.5			4			> 50		IC50 [11]: 33 µM
COc1cc([C@@H]2c3cc4c(cc3[C@@H](O[C@@H]3O[C@@H]5CO[C@@H](C)O[C@H]5[C@H](O)[C@H]3O)[C@H]3COC(=O)[C@H]23)OCO4)cc(OC)c1O [ETOPOSIDE]	0.6	> 50		-0.2		> 50			
CCC(C)n1ncn(-c2ccc(N3CCN(c4ccc(OCC5COC(Cn6cncn6)(c6ccc(Cl)cc6Cl)O5)cc4)CC3)cc2)c1=O (centres undefined) [ITRACONAZOLE]					2			0.2	
CCC(C)n1ncn(-c2ccc(N3CCN(c4ccc(OC[C@H]5CO[C@](Cn6cncn6)(c6ccc(Cl)cc6Cl)O5)cc4)CC3)cc2)c1=O (some centres undefined) [ITRACONAZOLE]	6.5		2	18			0.2		
COCC(=O)O[C@]1(CCN(C)CCCc2nc3ccccc3[nH]2)CCc2cc(F)ccc2[C@@H]1C(C)C [MIBEFRADIL]		10	60	8.9	60	10	7.4	7.4	logP [1]: 6.2
Clc1ccc(COC(Cn2ccnc2)c2ccc(Cl)cc2Cl)c(Cl)c1 (centres undefined) [MICONAZOLE]	5.8		22	1	22		7.8	7.8	
Cc1ncc2n1-c1ccc(Cl)cc1C(c1ccccc1F)=NC2 [MIDAZOLAM]	3.3	33	12	6	12	33	> 50	> 50	IC50 [13]: > 50 µM; IC50 [14]: > 50 µM
COC(=O)C1=C(C)NC(C)=C(C(=O)OCCN(C)Cc2ccccc2)C1c1cccc([N+](=O)[O-])c1 (centres undefined) [NICARDIPINE]	5.5	8		18	100	8	2.5	2.5	
CC1(C)S[C@@H]2[C@H](NC(=O)Cc3ccccc3)C(=O)N2[C@H]1C(=O)O [PENICILLIN G]									Ratio [8]: 1.1
O=c1[nH]c2ccccc2n1C1CCN(CCCC(c2ccc(F)cc2)c2ccc(F)cc2)CC1 [PIMOZIDE]		> 50	37	11	37	> 50			
C=C[C@H]1C[N@@]2CC[C@H]1C[C@@H]2[C@@H](O)c1ccnc2ccc(OC)cc12 [QUINIDINE]	2.8	10		20		10	13	13	
CN/C(=C\[N+](=O)[O-])NCCSCc1ccc(CN(C)C)o1 [RANITIDINE]	0.6	> 50	0	-2.4			> 50		IC50 [13]: > 50 µM
CNC(=C[N+](=O)[O-])NCCSCc1ccc(CN(C)C)o1 [RANITIDINE]					0	> 50		> 50	IC50 [14]: > 50 µM
CC(C)c1nc(CN(C)C(=O)N[C@H](C(=O)N[C@@H](Cc2ccccc2)C[C@H](O)[C@H](Cc2ccccc2)NC(=O)OCc2cncs2)C(C)C)cs1 [RITONAVIR]	4.9								
CC(C)(C)c1ccc(C(O)CCCN2CCC(C(O)(c3ccccc3)c3ccccc3)CC2)cc1 (centres undefined) [TERFENADINE]	5.7	2		0.4		2			
CC[C@]1(O)C[C@@H]2CN(CCc3c([nH]c4ccccc34)[C@@](C(=O)OC)(c3cc4c(cc3OC)N(C)[C@H]3[C@@](O)(C(=O)OC)[C@H](OC(C)=O)[C@]5(CC)C=CCN6CC[C@]43[C@@H]65)C2)C1 [VINBLASTINE]		8	75	33	75	8	> 50	> 50	logP [1]: 5.2
IVERMECTIN			34	-3.4	34				logP [1]: 4; IC50 ([2]; llc-pk1): 0.5 µM; IC50 ([13]; llc-pk1): 0.1 µM; IC50 ([9]; llc-pk1): 0.5 µM; IC50 ([10]; llc-pk1): 0.5 µM; IC50 ([14]; llc-pk1): 0.1 µM; IC50 ([6]; llc-pk1): 0.5 µM; IC50 [15]: > 50 µM
